Consider four compounds from ChEMBL document CHEMBL1147874, “Structure-activity based study of the Smac-binding pocket within the BIR3 domain of XIAP” (Bioorg Med Chem, 2007).

Calls of active or inactive are those of the source. The calls are words filed in the database; no cut-off is given here.

The target in assay [1] is E3 ubiquitin-protein ligase XIAP (Homo sapiens, UniProt P98170). Kind of assay: Binding affinity to BIR3 domain of XIAP by competitive fluorescent binding assay.
The species named for assay [2] is Homo sapiens. Kind of assay: Cytotoxicity against […] cells assessed as reduction in cell viability at 30 to 500 uM after 72 hrs by MTT assay. Type of assay: functional, cell-based. Background: Tetrazolium assays rely on reduction of a dye to a coloured formazan, in cell work by metabolically active cells.

Chain of E3 ubiquitin-protein ligase XIAP (P98170 whole entry, the tested form may be a part): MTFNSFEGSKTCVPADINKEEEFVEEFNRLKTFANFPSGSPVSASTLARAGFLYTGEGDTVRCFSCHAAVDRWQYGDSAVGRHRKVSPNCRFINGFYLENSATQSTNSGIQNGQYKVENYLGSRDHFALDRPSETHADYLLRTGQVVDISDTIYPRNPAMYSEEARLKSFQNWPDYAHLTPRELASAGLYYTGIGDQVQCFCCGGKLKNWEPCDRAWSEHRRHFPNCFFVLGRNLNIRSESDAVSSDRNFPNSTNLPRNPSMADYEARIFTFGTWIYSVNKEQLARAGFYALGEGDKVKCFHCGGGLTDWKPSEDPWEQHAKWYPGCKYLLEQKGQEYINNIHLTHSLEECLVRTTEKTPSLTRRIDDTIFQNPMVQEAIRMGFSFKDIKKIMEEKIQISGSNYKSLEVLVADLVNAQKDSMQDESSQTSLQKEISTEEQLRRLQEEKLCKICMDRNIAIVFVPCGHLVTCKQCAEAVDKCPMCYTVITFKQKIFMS

For orientation: Kd means the free concentration of one partner at which half of the binding sites on the other are occupied at equilibrium, for simple one-to-one binding. Lower therefore signals tighter binding. For `C[C@H](N)c1nc(C(=O)N2CCC[C@H]2C(=O)N[C@@H](Cc2ccccc2)C(=O)O)co1`, the affinity in assay [1], expressed as Kd, was 11 µM.

Turning to `CC[C@H](C)[C@H](NC(=O)[C@@H]1CCCN1C(=O)c1coc([C@H](C)N)n1)C(=O)O`, the Kd in assay [1] worked out at 300 µM.

With `CC[C@H](C)[C@H](NC(=O)[C@@H]1CCCN1C(=O)[C@@H](NC(=O)[C@H](C)N)C(C)C)C(=O)O`, the result in assay [2] was inactive.

Regarding `C[C@H](N)c1nc(C(=O)N2CCC[C@H]2C(=O)N[C@@H](Cc2c[nH]c3ccccc23)C(=O)O)co1`, the result in assay [2] was Active.
